Values of other authors as cited in US20050112093A1, “Combination therapy for HCV infection” (priority 2003, published 2005).

Key:
[1] = test system: HCV
[2] = majority of patients, over the course of treatment
[3] = test system: HCV; remark: listed apart in the source

Row | Compound | patients achieving a sustained virological response (SVR) ([1]; chronic HCV infection, following six months of therapy) [%] | SVR ([1]; treatment naïve patients, IFN-α alone, 6 months, the latter (upper) value representing 48 weeks of treatment) | mean decrease in hemoglobin [2] [g/dL] | serum HCV RNA levels ([3]; ribavirin treatment alone) | liver enzyme levels ([3]; ribavirin used alone, during treatment, return to baseline when treatment is discontinued)
1 | IFN-α | 20 | 6-17% | – | – | –
2 | NC(=O)c1ncn([C@@H]2O[C@H](CO)[C@@H](O)[C@H]2O)n1 [ribavirin, 1-beta-D-ribofuranosyl-1H-1,2,4-triazole-3-carboxamide] | – | – | 2 to 3 | only minimally and transiently decreases serum HCV RNA levels | decreases liver enzyme levels in most patients during treatment
